Measurements published in PMC7619385 (ACS infectious diseases, 2025).
Structures can show the parent of a compound that is named as a salt. Where two headings read alike, the source gives them in different places.

Target: T1, LmxCLK1 (Leishmania mexicana, UniProt E9AMP2)
T1 sequence (E9AMP2 1-422): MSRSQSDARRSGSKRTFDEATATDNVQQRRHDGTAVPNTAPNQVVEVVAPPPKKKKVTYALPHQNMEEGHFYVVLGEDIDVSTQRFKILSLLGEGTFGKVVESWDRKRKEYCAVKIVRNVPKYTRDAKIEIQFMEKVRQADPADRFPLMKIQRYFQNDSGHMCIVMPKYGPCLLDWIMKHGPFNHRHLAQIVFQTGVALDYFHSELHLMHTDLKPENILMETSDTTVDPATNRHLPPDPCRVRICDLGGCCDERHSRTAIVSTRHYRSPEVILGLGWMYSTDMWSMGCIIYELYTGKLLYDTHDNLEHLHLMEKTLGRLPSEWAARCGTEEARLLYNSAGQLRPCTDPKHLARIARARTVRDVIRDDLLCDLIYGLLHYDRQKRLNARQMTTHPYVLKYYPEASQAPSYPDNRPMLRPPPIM
Experiment: biochemical
Type: binding

[1] = DSF, 10 µM compound, 2 µM LmxCLK1, Run 1
[2] = DSF, 10 µM compound, 2 µM LmxCLK1, Run 2
[3] = DSF, 10 µM compound, 2 µM LmxCLK1, mean of two runs
[4] = DSF, 10 µM compound, 2 µM LmxCLK1, Run 1, read-out: ΔTm Run 1
[5] = DSF, 10 µM compound, 2 µM LmxCLK1, Run 2, read-out: ΔTm Run 2
[6] = DSF, 10 µM compound, 2 µM LmxCLK1, mean of two runs, read-out: ΔTm Average

Row | Structure (SMILES) | ΔTm Run 1 [1] [°C] | ΔTm Run 2 [2] [°C] | ΔTm Average [3] [°C] | ΔTm at 10 µM [4] [°C] | ΔTm at 10 µM [5] [°C] | ΔTm at 10 µM [6] [°C] | further results
1 | COc1ncccc1-c1cnn2ccc(N3CCN(C(=O)OC(C)C)CC3)nc12 [LP-935509 (AAK1)] | -0.2 | -0.4 | -0.3 |  |  |  | 
2 | Cc1cc(Nc2ncc(Cl)c(Nc3ccccc3S(=O)(=O)C(C)C)n2)c(OC(C)C)cc1C1CCNCC1 [LDK378] |  |  |  | 0.4 | 0 | 0.2 | 
3 | COc1ccc(COc2cc3oc(=O)c4cc(C(C)O)ccc4c3cc2OC)cc1 (stereo not drawn) [Palomid 529 (P529)] | 0.3 | -0.1 | 0.1 |  |  |  | 
4 | CNCc1ccc(-c2cc(-c3nc(-c4ccc(S(=O)(=O)C(C)C)cc4)cnc3N)on2)cc1 [VE-822] |  |  |  | 0.6 | 0.1 | 0.4 | 
5 | CC(C)(C)c1cc(C=C(C#N)C#N)cc(C(C)(C)C)c1O [Tyrphostin 9] | -0.3 | -0.3 | -0.3 |  |  |  | 
6 | COCCNCc1ccc(-c2cc3nccc(Oc4ccc(NC(=S)NC(=O)Cc5ccc(F)cc5)cc4F)c3s2)nc1 [MGCD-265] |  |  |  | 0 | -0.1 | -0.1 | 
7 | CS(=O)(=O)CCNCc1ccc(-c2ccc3ncnc(Nc4ccc(OCc5cccc(F)c5)c(Cl)c4)c3c2)o1.Cc1ccc(S(=O)(=O)O)cc1.Cc1ccc(S(=O)(=O)O)cc1 [Lapatinib (GW-572016) Ditosylate] | 0.3 | 0.0 | 0.1 |  |  |  | 
8 | Cc1cnc(-c2cnc(NCCNc3ccc(C#N)cn3)nc2-c2ccc(Cl)cc2Cl)[nH]1.Cl [CHIR-99021 (CT99021) HCl] | 0.0 | 0.0 | 0.0 |  |  |  | 
9 | CNC(=O)c1c(F)cccc1Nc1nc(Nc2cc3c(cc2OC)CCN3C(=O)CN(C)C)nc2[nH]ccc12 [GSK1838705A] |  |  |  |  |  |  | ΔTm Average: -0.2; ΔTm Run 1: -0.1; ΔTm Run 2: -0.3
10 | CS(=O)(=O)N1CCN(Cc2cc3nc(-c4cccc5[nH]ncc45)nc(N4CCOCC4)c3s2)CC1 [GDC-0941] |  |  |  | 0.1 | 0 | 0.1 | 
11 | Cc1cc(C(C)Nc2ccccc2)c2nc(N3CCOCC3)cc(=O)n2c1 (stereo not drawn) [TGX-221] | 0.5 | 0.3 | 0.4 |  |  |  | 
12 | C[C@]1(O)C[C@@H](c2nc(-c3ccc4ccc(-c5ccccc5)nc4c3)c3c(N)nccn32)C1 [OSI-906 (Linsitinib)] | 0.0 | -0.3 | -0.2 |  |  |  | 
13 | Oc1cc(O)cc(/C=C/c2ccc(O)c(O)c2)c1 [Piceatannol] |  |  |  | 0 | 0.1 | 0.1 | 
14 | O=C(NCc1cccc(O)c1)Nc1nc(-c2ccncc2)cs1 [RKI-1447] | -0.1 | -0.1 | -0.1 |  |  |  | 
15 | O=c1c(-c2ccc(O)cc2)coc2cc(O)cc(O)c12 [Genistein] |  |  |  | 0.2 | 0.3 | 0.2 | 
16 | Cn1cc(-c2cnn3c(N)c(Br)c([C@@H]4CCCNC4)nc23)cn1 [MK-8776 (SCH 900776)] |  |  |  |  |  |  | ΔTm Average: 0.3 °C; ΔTm Run 1: 0.5 °C; ΔTm Run 2: 0 °C
17 | CCn1c(N)c(C(=O)NC)c(=O)c2ccc(C#C[C@@](C)(O)COC)nc21 [SAR131675] | 0.0 | -0.1 | 0.0 |  |  |  | 
18 | CCc1cc(Nc2nccc(-c3c(-c4ccc(OC)c(C(=O)Nc5c(F)cccc5F)c4)nc4ccccn34)n2)c(OC)cc1N1CCC(N2CCN(S(C)(=O)=O)CC2)CC1 [GSK1904529A] |  |  |  |  |  |  | ΔTm Average: 0.2 °C; ΔTm Run 1: 0.2 °C; ΔTm Run 2: 0.1 °C
19 | C[C@@H](N)[C@H]1CC[C@H](C(=O)Nc2ccncc2)CC1.Cl.Cl [Y-27632 2HCl] | 0.1 | 0.1 | 0.1 |  |  |  | 
20 | CCN(CC)CCCCNc1ncc2cc(-c3cc(OC)cc(OC)c3)c(NC(=O)NC(C)(C)C)nc2n1 [PD173074] |  |  |  | 0.1 | -0.1 | 0 | 
21 | Cc1ccc(F)c(NC(=O)Nc2ccc(-c3cccc4[nH]nc(N)c34)cc2)c1 [Linifanib (ABT-869)] | 0.3 | 0.6 | 0.4 |  |  |  | 
22 | CNC(=O)c1cc(Oc2ccc(NC(=O)Nc3ccc(Cl)c(C(F)(F)F)c3)cc2)ccn1 [Sorafenib Tosylate] | 0.3 |  | 0.3 |  | 0.2 |  | 
23 | O=c1cc(N2CCOCC2)oc2c(-c3ccccc3)cccc12 [LY294002] |  |  |  | 0.5 | 0.2 | 0.3 | 
